Test results published in US12678451B2, “Cannabinoid and omega fatty acid compositions and methods of using” (GreenWay Herbal Products, LLC, priority 2019, dated 2026).
Like-named read-outs stand apart in the source and are kept apart here.

Columns and labels:
[1] = rats; cited from earlier work
[2] = system: cytokines induced in mice by LPS; test: Mouse LPS cytokine model, Example 6D, ALA, DHA and EPA omega-3 samples; type: in vivo; conditions: mouse, in vivo
Protocol: A series of experiments using a mouse LPS cytokine animal model were performed. In the mouse LPS cytokine animal model, mice were injected with LPS, which induced the immune response shortly after the mice were injected with one of the potential anti-inflammatory compounds under evaluation (the “test compound”). The efficacy of the test compound was evaluated based on its ability to reduce expression levels of inflammatory cytokines that were elevated due to the immune response. The test compounds included a cannabinoid, an omega fatty acid, and a cannabinoid-omega fatty acid composition.
The mice were intraperitoneally injected with 0.1 mL of the test compound. One hour later, the mice were intraperitoneally injected with 0.1 mL of LPS in phosphate buffered saline (PBS). Four hours later, a heart puncture was performed and the blood was allowed to clot to generate serum. 0.1 mL of the serum was diluted 1:2 with PBS and stored at −80° C. The serum was then sent to a laboratory where a mouse cytokine array/chemokine array 31-plex (MD31) analysis was performed that analyzed the expression levels of the 32 cytokines/chemokines listed in Table 9, above.
For each considered test compound, the ability of the test compound to suppress each inflammatory cytokine was calculated by determining the percent suppression.
36 female C57BL/6 mice that weighed approximately 20 g each were obtained and allowed to acclimate for one week after arrival with unlimited access to food and water. On the day of the study, the mice were weighed and split into eight groups of four mice each so that the average weight of each group was as close as possible to each other.
All of the omega fatty acid samples that were tested were diluted so the dose was 12.5 mg of total omega fatty acids per mouse. […] The omega fatty acids samples tested included: (1) pollock oil, 456 mg/mL omega unsaturated fatty acids. The pollock oil contained a mixture of anti-inflammatory omega-3, omega-7 and omega-9 unsaturated fatty acids. […] (2) Flaxseed oil, 656 mg/mL anti-inflammatory omega unsaturated fatty acids. The flaxseed oil contained a mixture of anti-inflammatory omega-3 and omega-9 unsaturated fatty acids. The omega-3 and omega-9 unsaturated fatty acids constituted 77.6% and […], respectively, of the anti-inflammatory omega fatty acids contained in the flaxseed oil. A 12.5 mg dose contained 9.7 mg of ALA in the triglyceride form. (3) Mono 2:1 DHA:EPA, 744 mg/mL omega-3 unsaturated fatty acids that were primarily DHA or EPA. A 12.5 mg dose contained 7.81 mg of DHA and 3.91 mg of EPA. The omega-3 unsaturated fatty acids were in the free mono form. […] A 12.5 mg dose contained 3.85 mg of DHA and 7.69 mg of EPA. The omega-3 unsaturated fatty acids were in the free mono form. (5) Tri 2:1 DHA:EPA, 678.9 mg/mL omega-3 unsaturated fatty acids that were primarily DHA or EPA. A 12.5 mg dose contained 7.88 mg of DHA and 3.94 mg of EPA. The omega-3 unsaturated fatty acids were in the triglyceride form. (6) Tri 1:2 DHA:EPA, 678.9 mg/mL omega-3 unsaturated fatty acids that were primarily DHA or EPA. A 12.5 mg dose contained 3.60 mg of DHA and 7.19 mg of EPA. The omega-3 unsaturated fatty acids were in the triglyceride form.

[3] = doses up to 600 mg in humans; cited from earlier work
[4] = system: cytokines induced in mice by LPS; test: Mouse LPS cytokine animal model (Example 3), cannabinoids in PB with 5% DMSO; type: in vivo; conditions: 5 mg/kg
Protocol: This experiment was conducted to compare the ability of CBD, CBDA or the 1:1 equimolar mixture of CBD:CBDA to suppress the induction of cytokines whose expression levels were induced in mice by LPS.
The ability of agents to suppress the immune system can be tested in vivo using an LPS mouse model, in which mice are injected with LPS to cause an immune response (Field et al., 1970; Ghezzi P and Sipe J D, 1988).
Four 20 g female C57BL/6 mice were used per group. The experimental mice were first injected with 0.1 mL of the cannabinoids prepared at 1 mg/mL in phosphate buffer (PB) with 5% DMSO to yield a final dose of 5 mg/kg, followed one hour later by the injection of 0.1 mL of 0.02 mg/mL LPS in PB to yield a final dose of 0.1 mg/kg. Mice injected with 0.1 mL of PB with 5% DMSO and 0.1 mL of PBS served as a non-induced control and mice injected with 0.1 mL of PB with 5% DMSO and 0.1 mL of 0.02 mg/mL LPS in PB served as a LPS untreated control. After allowing two hours for the immune system to be induced by LPS, the mice were then euthanized, heart punctures performed to extract the blood, which was allowed to coagulate on ice for 1 hour before centrifuging to isolate the serum. The levels of 32 of the most common mouse cytokines (Eve Technologies, Calgary, Canada, Table 9) were determined by multi-plex analysis.

[5] = system: differentiated U-937 cells; test: Human cellular U-937 autophagy induction assay (anti-LC3); type: cell-based; conditions: 1.0 μM, 12 hours
Protocol: The induction of autophagy was monitored using anti-LC3 antibodies to detect LC3 on the autophagosome in human U-937 pro-monocytic histiocytic lymphoma cells (ATCC, Manassas, Va., USA), which generate morphologies characteristic of macrophages upon induction by various stimuli. U-937 cells were cultured in RPMI-1640 medium with L-glutamine and sodium bicarbonate (Sigma-Aldrich, St Louis, Mo.) supplemented with 10% fetal bovine serum (FBS) and 1% penicillin in 25 cm2 tissue flasks at 37° C. in a 5% CO2 humidified atmosphere and passaged every 2-3 days. U-937 cells were seeded in 96 well plates at 5×10^5 cells/mL and stimulated with 100 ng/mL PMA to induce differentiation for 24 hours. The cells were then treated with the various cannabinoids at 1.0 μM concentrations for 12 hours. 30 μM chloroquine was used as a positive control. After treatment, the cells were fixed using 3.7% formaldehyde in PBS for 15 minutes at room temperature and washed with PBS to remove the fixative. Permeabilization reagent (0.2% Triton X-100 in PBS) (Sigma-Aldrich) was added, the cells were incubated for 15 minutes at room temperature and then the cells were washed with PBS to remove the permeabilization reagent. LC3B rabbit polyclonal antibody (Invitrogen) was added at a final concentration of 0.5 μg/ml for 1 hour at room temperature and the cells were washed with PBS remove the primary antibody. Secondary conjugated goat anti-rabbit polyclonal antibody (Thermo Scientific) was then added at a final concentration of 2.0 μg/ml for 1 hour at room temperature. The cells were washed, Hoechst dye was added to stain the nucleus and the cells were imaged using an Arrayscan VTI high-content screening (HCS) reader (Thermo Scientific) with the appropriate filters and the data was analyzed using the vHCS Scan software.
Chloroquine at a concentration of 30 μM was included as a positive control. The ability to induce autophagy was determined as a percentage with respect to the untreated control.

[6] = system: cytokine levels in differentiated THP-1 cells treated with LPS; test: THP-1 human cellular LPS cytokine assay, four independent experiments, per cytokine; type: cell-based; conditions: 2 µM; LPS 20 ng/mL
[7] = doses up to 100 mg in mice; cited from earlier work
[8] = system: cytokine levels in differentiated THP-1 cells treated with LPS; test: THP-1 human cellular LPS cytokine assay, three independent experiments, total averaged suppression
Protocol: Cells were seeded onto 24-, or 12-well plates and incubated for 48 hours to 72 hours to allow for differentiation. […] Supernatants were collected for quantification of human cytokine levels to assess the cytokine response. Cells remaining after the supernatant collection were tested to ensure they had at least 90% viability as determined by Alamar Blue assays. To conduct the Alamar Blue assays, supernatants were replaced with culture medium containing 1× Alamar Blue reagent and incubated overnight. Cell viability was assessed by measuring relative fluorescent units (RFU) on the SpectraMax M2e microplate reader (Molecular Devices Inc., Sunnyvale, Calif., USA) at Excitation 560 nm and Emission 590 nm. Controls included untreated cells with DMSO at the same concentration as the treated cells, LPS stimulated cells with DMSO at the same concentration as the treated cells and LPS stimulated cell with the various treatments. The levels of 42 of the most common human cytokines (Eve Technologies, Calgary, Canada Table 6) were determined by multi-plex analysis.
For this reason, the level of cytokine suppression was determined for each cytokine by each cannabinoid that was tested and the total averaged suppression for each cannabinoid was determined by dividing the total suppression by the number of the cytokines that were analyzed.

[9] = system: animal or human cells grown via tissue culture; conditions: cited from earlier work
DPPH antioxidant assay = type: biochemical; conditions: 100 μM
Protocol: The ability of the cannabinoids to act as potential antioxidants was assessed using the 2,2-diphenyl-1-picrylhydrazyl (DPPH) antioxidant assay. The cannabinoids CBDA, CBD, CBDVA, CBDV, CBG, THCV, and the 1:1 CBD:CBDA mixture had the highest antioxidant activities with radical scavenging activities of 38.19%, 48.00%, 43.81%, 44.21%, 44.28%, 45.71%, and 43.74%, respectively.
The 2,2-diphenyl-1-picrylhydrazyl (DPPH) free radical (Alfa Aesar) was prepared at 0.1 mM in ethanol. The cannabinoids were tested at a final concentration of 100 uM. 2 uL of 7.5 mM stock solutions of the cannabinoids to be tested in DMSO were added to 148 uL of 0.1 mM DPPH to achieve a final concentration of 100 μM in the assay. Ascorbic acid (Thermo Scientific) at a final concentration of 10 mg/ml was used as a positive control. The reaction mixture was incubated in the dark at room temperature for 1 hour, the absorbance of the mixture was read at 517 nm using a Spectra Max 5M microplate reader (Molecular Devices, LLC, Sunnyvale, Calif., USA) and the absorbance was converted to percent radical scavenging activity (% RSA) using the following formula: % RSA=[(Absorbance of the control−Absorbance of the sample)/(Absorbance of the control)]×100.
Free radical production occurs when the immune system is activated and antioxidants represent potential effective treatments for inflammatory conditions and autoimmune diseases. […] The DPPH antioxidant assay can be used to measure the ability of a compound to scavenge free radicals by measuring the ability of compounds to hydrogenate and reduce DPPH. The DPPH assay was conducted on CBCA, CBDA, CBDVA, CBGA, CBLA, CBNA, THCVA, and their decarboxylated derivatives as well as the 1:1 CBD:CBDA mixture.

Compound: CC(O)CO (centres unmarked) [propylene glycol]
- LD50 [1]: 20,000 mg/kg

Compound: C[S+](C)[O-] [dimethyl sulfoxide]
- LD50 [1]: 14,500 mg/kg

Compound: CC/C=C\C/C=C\C/C=C\C/C=C\C/C=C\C/C=C\CCC(=O)O [DHA, (4Z,7Z,10Z,13Z,16Z,19Z)-docosa-4,7,10,13,16,19-hexaenoic acid]
- anti-inflammatory capability among ALA, DHA and EPA [2]: highest anti-inflammatory capability

Compound: C=C(C)[C@@H]1CCC(C)=C[C@H]1c1c(O)cc(CCCCC)cc1O [CBD, 2-[(1R,6R)-6-Isopropenyl-3-methyl-2-cyclohexen-1-yl]-5-pentyl-1,3-benzenediol]
- adverse side effects [3]: no adverse side effects
- Average cytokine suppression [4]: 12.86%
- GM-CSF suppression [4]: 34.53%
- IFNγ suppression [4]: −0.19%
- IL-1β suppression [4]: 10.58%
- IL-2 suppression [4]: −0.09%
- IL-6 suppression [4]: 4.49%
- IL-12β p40 suppression [4]: 34.89%
- IL-13 suppression [4]: 6.38%
- IL-17 suppression [4]: 7.51%
- IP-10 suppression [4]: 1.72%
- KC suppression [4]: 7.85%
- LIF suppression [4]: 25.24%
- M-CSF suppression [4]: 7.70%
- MIP-1α suppression [4]: 6.69%
- MIP-1β suppression [4]: −0.77%
- MIP-2 suppression [4]: 34.56%
- TNF-α suppression [4]: 24.74%
- Fluorescence (LC3) [5]: 45.43
- activation at 1 µM ([5]; Homo sapiens, U-937, read-out: Induction of autophagy with respect to the untreated control): -5.84%
- Average cytokine suppression [6]: 39.62%
- EGF suppression [6]: −5.61%
- FGF-β suppression [6]: 41.85%
- Flt-3L suppression [6]: 60.02%
- G-CSF suppression [6]: 51.32%
- GM-CSF suppression [6]: 45.16%
- IFNγ suppression [6]: 13.71%
- IL-1α suppression [6]: 55.14%
- IL-1β suppression [6]: 71.06%
- IL-4 suppression [6]: 14.63%
- IL-6 suppression [6]: 66.26%
- IL-7 suppression [6]: 18.2%
- IL-10 suppression [6]: 32.42%
- IL-12 p70 suppression [6]: −31.17%
- IL-15 suppression [6]: 62.30%
- IL-18 suppression [6]: 56.90%
- IP-10 suppression [6]: 67.08%
- MCP-1 suppression [6]: 43.90%
- MIP-1β suppression [6]: 31.85%
- TNFα suppression [6]: 29.05%
- TNFβ suppression [6]: 68.24%
- adverse side effects [7]: no adverse side effects
- effectiveness at reducing elevated cytokine levels relative to dexamethasone [8]: at least half as effective as dexamethasone
- inhibition at 2 µM ([8]; Homo sapiens, THP-1, 4 h, read-out: % Cytokine Suppression (total averaged)): 33.1%
- dose that can cause significant cytotoxicity [9]: less than 5 μM
- radical scavenging activity compared to the untreated control (DPPH antioxidant assay): at least two-fold
- % RSA (radical scavenging activity) (DPPH antioxidant assay; 1 hour): 48.00%
